Each structure is given as a SMILES string. Bounds are passed on as bounds.

In general, IC50 refers to the concentration that inhibits the measured activity by half.

This assay deals with HPK1 (Homo sapiens (Human), UniProt Q92918). As to the kind of experiment: HPK1 kinase activity inhibition test (ADP-Glo, luminescence). In kind it is biochemical. As to conditions: HPK1 5 nM, ATP 2 μM, read-out: IC50, inhibitory effects of compounds on HPK1 kinase activity. As to the method:
1. HPK1 Kinase Activity Inhibition Test
The kinase activity of HPK1 is manifested as activity of autophosphorylation and phosphorylation of downstream substrates. In the process of autophosphorylation, additional substrates are not required, and ATP is consumed to generate ADP. The amount of the product was measured by ADP-Glo reagent and luminescence method to reflect kinase activity.
Test compounds: compounds prepared in the examples of this application.
Prepare compound stock solution: dissolve the compound to be tested in 100% DMSO to make a 10 mM stock solution;
Prepare 4× Kinase Reaction Buffer:
Prepare 2×HPK1 Kinase Solution:
Dilute the stock solution of the compound to be tested by 5 times with […], make a 4-fold equal dilution in a 96-well dilution plate, add 1 μL of the compound to 49 µL of kinase reaction buffer, and shake on a microplate shaker for 20 minutes. Transfer 2 μL of […] kinase solution to 384 reaction plate, add 1 μL of the test compound to the 384 reaction plate (Greiner, 784075), centrifuge for 1 minute (1000 rpm/min), incubate at 25° C. for 10 minutes. Transfer […] of the 4×ATP mixture to a 384 reaction plate, centrifuge for 1 minute (1000 rpm/mm), and incubate at 25° C. for 60 minutes. In the reaction system, the final concentration of DMSO was […]. Transfer 4 μL of ADP-Glo to a 384 reaction plate, centrifuge for 1 minute (1000 rpm/min), and incubate at 25° C. for 40 minutes. Transfer 8 μL detection solution to a 384 reaction plate, centrifuge for 1 minute (1000 rpm/min), and incubate at 25° C. for 40 minutes. The […] signal was read using a Biotek multi-function plate reader, and the […] (half inhibitory concentration) of the compound was obtained using a four-coefficient nonlinear fitting formula.
On the technique in general: ADP-Glo turns the ADP formed in a reaction into a luminescent signal.

HPK1, sequence (Q92918 whole entry): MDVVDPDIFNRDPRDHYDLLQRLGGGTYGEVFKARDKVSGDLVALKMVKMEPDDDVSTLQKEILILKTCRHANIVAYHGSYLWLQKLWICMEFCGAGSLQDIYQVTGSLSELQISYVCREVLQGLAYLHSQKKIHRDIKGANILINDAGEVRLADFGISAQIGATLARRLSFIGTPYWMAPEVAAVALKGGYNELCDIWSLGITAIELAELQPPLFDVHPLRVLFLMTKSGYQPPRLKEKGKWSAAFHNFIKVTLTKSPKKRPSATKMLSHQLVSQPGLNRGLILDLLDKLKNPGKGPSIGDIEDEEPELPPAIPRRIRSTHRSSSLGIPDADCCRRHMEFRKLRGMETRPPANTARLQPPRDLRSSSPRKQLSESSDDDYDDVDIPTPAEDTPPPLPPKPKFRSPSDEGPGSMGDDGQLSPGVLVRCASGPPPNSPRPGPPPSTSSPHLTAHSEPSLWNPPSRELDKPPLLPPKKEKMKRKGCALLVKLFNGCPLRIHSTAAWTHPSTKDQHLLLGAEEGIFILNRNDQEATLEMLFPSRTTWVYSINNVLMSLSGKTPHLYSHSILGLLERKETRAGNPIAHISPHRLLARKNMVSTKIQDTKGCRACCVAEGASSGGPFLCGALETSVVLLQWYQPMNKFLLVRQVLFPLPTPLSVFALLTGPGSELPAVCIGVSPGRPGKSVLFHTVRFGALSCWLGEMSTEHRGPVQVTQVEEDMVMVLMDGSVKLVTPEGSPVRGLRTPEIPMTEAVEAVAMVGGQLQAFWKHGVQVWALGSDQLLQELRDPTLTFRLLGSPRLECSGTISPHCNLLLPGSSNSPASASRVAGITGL

Take `COc1ccc(-n2nc3c(-c4ccc(C5=CCN(C)CC5)cc4)n[nH]c3cc2=O)c(OC)c1` [Compound 4, 5-(2,4-dimethoxyphenyl)-3-(4-(1-methyl-1,2,3,6-tetrahydropyridin-4-yl)phenyl)-1H-pyrazolo[4,3-c]pyridazin-6(5H)-one]: the IC50 is at most 50 nM.
The result for `COc1cccc(F)c1-n1nc2c(-c3ccc(N4CCN(C)CC4)nc3)n[nH]c2cc1=O` [Compound 10] reads at most 50 nM; that for `Cc1cccc(F)c1-n1nc2c(-c3ccc(N4CCN(C)CC4=O)cc3)n[nH]c2cc1=O` [Compound 12, 5-(2-fluoro-6-methylphenyl)-3-(4-(4-methyl-2-oxopiperazin-1-yl)phenyl)-1H-pyrazolo[4,3-c]pyridazin-6(5H)-one], 500 to 2000 nM; that for `Cc1cccc(F)c1-n1nc2c(-c3ccc(CN4CCN(C)CC4=O)cc3)n[nH]c2cc1=O` [Compound 15, 5-(2-fluoro-6-methylphenyl)-3-(4-((4-methyl-2-oxo-piperazin-1-yl)methyl)phenyl)-1H-pyrazolo[4,3-c]pyridazin-6(5H)-one], 500 to 2000 nM.
`Cc1cccc(F)c1-n1nc2c(-c3cnn(C)c3)n[nH]c2cc1=O` [Compound 17, 5-(2-fluoro-6-methylphenyl)-3-(1-methyl-1H-pyrazol-4-yl)-1H-pyrazolo[4,3-c]pyridazin-6(5H)-one]: the IC50 is 500 to 2000 nM.
Take `Cc1cccc(F)c1-n1nc2c(-c3cnn(C4CCN(C)CC4)c3)n[nH]c2cc1=O` [Compound 19, 5-(2-fluoro-6-methylphenyl)-3-(1-(1-methylpiperidin-4-yl)-1H-pyrazol-4-yl)-1H-pyrazolo[4,3-c]pyridazin-6(5H)-one]: the half-inhibitory concentration (IC50) lay in the range of 500 to 2000 nM.
Under `COc1cccc(F)c1-n1nc2c(-c3ccc(C4CCN(C)CC4)cc3)n[nH]c2cc1=O` [Compound 24, 5-(2-fluoro-6-methoxyphenyl)-3-(4-(1-methylpiperidin-4-yl)phenyl)-1H-pyrazolo[4,3-c]pyridazin-6(5H)-one] stands at most 50 nM; under `COc1ccc(-n2nc3c(-c4ccc(C5CCN(C)CC5)cc4)n[nH]c3cc2=O)c(OC)c1` [Compound 26, 5-(2,4-dimethoxyphenyl)-3-(4-(1-methylpiperidin-4-yl)phenyl)-1H-pyrazolo[4,3-c]pyridazin-6(5H)-one], 500 to 2000 nM.
Regarding `Cc1cccc(F)c1-n1nc2c(-c3cnc(N4CCOCC4)nc3)n[nH]c2cc1=O` [Compound 32, 5-(2-fluoro-6-methylphenyl)-3-(2-morpholinylpyrimidin-5-yl)-1H-pyrazolo[4,3-c]pyridazin-6(5H)-one], the IC50 was 50 to 500 nM.
Take `Cc1ccncc1-n1nc2c(-c3ccc(N4CCN(C)CC4)cc3)n[nH]c2cc1=O` [Compound 47, 3-(4-(4-methylpiperazin-1-yl)phenyl)-5-(4-methylpyrid-3-yl)-1H-pyrazolo[4,3-c]pyridazin-6(5H)-one]: the IC50 lay in the range of 500 to 2000 nM.
As for `COc1ccncc1-n1nc2c(-c3ccc(N4CCN(C)CC4)cc3)n[nH]c2cc1=O` [Compound 48, 5-(4-methoxypyrid-3-yl)-3-(4-(4-methylpiperazin-1-yl)phenyl)-1H-pyrazolo[4,3-c]pyridazin-6(5H)-one], the IC50 was in the range of 50 to 500 nM.
Take `Cc1cccc(F)c1-n1nc2c(-c3ccc(N4CCN(C)CC4)cc3)n[nH]c2c(C)c1=O` [Compound 55, 5-(2-fluoro-6-methylphenyl)-7-methyl-3-(4-(4-methylpiperazin-1-yl)phenyl)-1H-pyrazolo[4,3-c]pyridazin-6(5H)-one]: the IC50 was in the range of 50 to 500 nM.
Regarding `COc1cccc(F)c1-n1nc2c(-c3ccc4c(c3)CCN(C)C4)n[nH]c2cc1=O` [Compound 72, 5-(2-fluoro-6-methoxyphenyl)-3-(2-methyl-1,2,3,4-tetrahydroisoquinolin-6-yl)-1H-pyrazolo[4,3-c]pyridazin-6(5H)-one], the IC50 is 50 to 500 nM.
Regarding `CN1CCN(c2ccc(-c3n[nH]c4cc(=O)n(-c5cccc6c5COC6)nc34)cc2)CC1` [Compound 75, 5-(1,3-dihydroisobenzofuran-4-yl)-3-(4-(4-methylpiperazin-1-yl)phenyl)-1H-pyrazolo[4,3-c]pyridazin-6(5H)-one], the half-maximal inhibitory concentration (IC50) is 500 to 2000 nM.
For `Cc1cc(Cl)cc(F)c1-n1nc2c(-c3ccc(N4CCN(C)CC4)cc3)n[nH]c2cc1=O` [Compound 78, 5-(4-chloro-2-fluoro-6-methylphenyl)-3-(4-(4-methylpiperazin-1-yl)phenyl)-1H-pyrazolo[4,3-c]pyridazin-6(5H)-one], the IC50 was 50 to 500 nM.
The result for `Cc1cccc(F)c1-n1nc2c(-c3ccc(N4CCN(CC(F)F)CC4)cc3)n[nH]c2cc1=O` [Compound 84] reads 50 to 500 nM; that for `Cc1cccc(F)c1-n1nc2c(-c3ccc(N4CC5CC(C4)N5C)cc3)n[nH]c2cc1=O` [Compound 91, 5-(2-fluoro-6-methylphenyl)-3-(4-(6-methyl-3,6-diazabicyclo[3.1.1]heptan-3-yl)phenyl)-1H-pyrazolo[4,3-c]pyridazin-6(5H)-one], at most 50 nM.
As to `COc1cccc(F)c1-n1nc2c(-c3ccc(N4CCOCC4)cc3)n[nH]c2cc1=O` [Compound 92, 5-(2-fluoro-6-methoxyphenyl)-3-(4-morpholinophenyl)-1H-pyrazolo[4,3-c]pyridazin-6(5H)-one], the IC50 was at most 50 nM.
The result for `Cc1cccc(F)c1-n1nc2c(-c3ccc(N4CCN(C)CC4)c(CN(C)C)c3)n[nH]c2cc1=O` [Compound 95, 3-(3-((dimethylamino)methyl)-4-(4-methylpiperazin-1-yl)phenyl)-5-(2-fluoro-6-methylphenyl)-1H-pyrazolo[4,3-c]pyridazin-6(5H)-one] reads 50 to 500 nM; that for `CNCc1cc(-c2n[nH]c3cc(=O)n(-c4c(C)cccc4F)nc23)ccc1N1CCN(C)CC1` [Compound 96, 3-(3-((methylamino)methyl)-4-(4-methylpiperazin-1-yl)phenyl)-5-(2-fluoro-6-methylphenyl)-1H-pyrazolo[4,3-c]pyridazin-6(5H)-one], 50 to 500 nM.
With `COc1cccc(C)c1-n1nc2c(-c3ccc(N4CCN(C)CC4)nc3)n[nH]c2cc1=O` [Compound 97, 5-(2-methoxy-6-methylphenyl)-3-(6-(4-methylpiperazin-1-yl)pyrid-3-yl)-1H-pyrazolo[4,3-c]pyridazin-6(5H)-one], the IC50 lay in the range of 50 to 500 nM.
For `CCN1CCN(c2ccc(-c3n[nH]c4cc(=O)n(-c5c(C)cccc5F)nc34)cn2)CC1` [Compound 101, 3-(6-(4-ethylpiperazin-1-yl)pyrid-3-yl)-5-(2-fluoro-6-methylphenyl)-1H-pyrazolo[4,3-c]pyridazin-6(5H)-one], the concentration for half-maximal inhibition (IC50) is at most 50 nM.
With `CC(=O)N1CCN(c2ccc(-c3n[nH]c4cc(=O)n(-c5c(C)cccc5F)nc34)cn2)CC1` [Compound 102, 3-(6-(4-acetylpiperazin-1-yl)pyrid-3-yl)-5-(2-fluoro-6-methylphenyl)-1H-pyrazolo[4,3-c]pyridazin-6(5H)-one], the IC50 was 50 to 500 nM.
On to `Cc1cccc(F)c1-n1nc2c(-c3ccc(N4CCS(=O)(=O)CC4)nc3)n[nH]c2cc1=O` [Compound 104, 3-(6-(1,1-dioxidothiomorpholino)pyrid-3-yl)-5-(2-fluoro-6-methylphenyl)-1H-pyrazolo[4,3-c]pyridazin-6(5H)-one], for which the half-maximal inhibitory concentration (IC50) was 50 to 500 nM.
Under `CCc1cccc(F)c1-n1nc2c(-c3cnc(N4CCN(C)CC4)nc3)n[nH]c2cc1=O` [Compound 110, 5-(2-ethyl-6-fluorophenyl)-3-(2-(4-methylpiperazin-1-yl)pyrimidin-5-yl)-1H-pyrazolo[4,3-c]pyridazin-6(5H)-one] stands 50 to 500 nM.
For the compound `Cc1cccc(F)c1-n1nc2c(-c3ccc(N4CCN5C(=O)OCC5C4)cc3)n[nH]c2cc1=O` (stereo not drawn) [Compound 122, 7-(4-(5-(2-fluoro-6-methylphenyl)-6-oxo-5,6-dihydro-1H-pyrazolo[4,3-c]pyridazin-3-yl)phenyl)tetrahydro-1H-oxazolo[3,4-a]pyrazin-3(5H)-one], the half-inhibitory concentration (IC50) was at most 50 nM.
Take `COc1cccc(F)c1-n1nc2c(-c3ccc(N4CCN5C(=O)OCC5C4)cc3)n[nH]c2cc1=O` (stereo not drawn) [Compound 123, 7-(4-(5-(2-fluoro-6-methoxyphenyl)-6-oxo-5,6-dihydro-1H-pyrazolo[4,3-c]pyridazin-3-yl)phenyl)tetrahydro-1H-oxazolo[3,4-a]pyrazin-3(5H)-one]: the IC50 is at most 50 nM.
Turning to `Cc1cccc(F)c1-n1nc2c(-c3ccc(N4CCN(C)C(C(=O)O)C4)cc3)n[nH]c2cc1=O` (stereo not drawn) [Compound 131, 4-(4-(5-(2-fluoro-6-methylphenyl)-6-oxo-5,6-dihydro-1H-pyrazolo[4,3-c]pyridazin-3-yl)phenyl)-1-methylpiperazin-2-carboxylic acid], the IC50 lay in the range of 50 to 500 nM.
Consider `COc1cccc(F)c1-n1nc2c(-c3ccc(N4CCN5C(=O)CN(C)CC5C4)cc3)n[nH]c2cc1=O` (stereo not drawn) [Compound 132, 8-(4-(5-(2-fluoro-6-methoxyphenyl)-6-oxo-5,6-dihydro-1H-pyrazolo[4,3-c]pyridazin-3-yl)phenyl)-2-methylhexahydro-1H-pyrazino[1,2-a]pyrazin-4(6H)-one], for which the concentration for half-maximal inhibition (IC50) is at most 50 nM.
As for `COc1cc(C)c(-n2nc3c(-c4ccc(N5CCN(C)CC5)cc4)n[nH]c3cc2=O)cn1` [Compound 149], the IC50 is 500 to 2000 nM.

The values are drawn from US20230322789A1, “PYRAZOLOPYRIDAZINONE COMPOUND, AND PHARMACEUTICAL COMPOSITION AND USE THEREOF” (BroadenBio Co., Ltd., priority 2020, published 2023).
